Results on three molecules are retold here after patent US8952054B2, “Small molecule inhibitors of MUC1 and methods of identifying the same” (Dana-Farber Cancer Institute, Inc., priority 2010, dated 2015).

The target of test [1] is T1, MUC1-CD (Homo sapiens, UniProt P15941).
T1 construct: the 72 aa cytoplasmic domain (CD); His; made in house
T1 sequence (P15941 1184-1255 limits assumed): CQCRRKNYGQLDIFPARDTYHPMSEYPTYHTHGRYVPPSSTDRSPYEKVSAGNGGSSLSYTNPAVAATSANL
Briefly: Plate-based MUC1-CD dimerization inhibition assay (primary screening). The format is biochemical. The method, then:
FIG. 6—Schematic Illustration of Primary HTS Screening Assay for MUC1-CD Dimerization. MUC1-CD protein was coated on a 96 well plate and then incubated with Biotinylated MUC1-CD that binds to non-biotinylated MUC1-CD protein by dimer formation. Bound biotinylated MUC1-CD protein was detected by incubation with Streptavin-HRP+peroxidase substrate system.
FIGS. 11A-C—Identification of MUC1-CD dimerization inhibitors in a small molecule screen. (FIG. 11A) Schematic representation of the MUC1-C subunit with the 58 amino acid (aa) extracellular domain (ECD), the 28 aa transmembrane domain (TD) and the 72 aa cytoplasmic domain (CD; SEQ ID NO: 1). The sequence of MUC1-CD is included with highlighting of the CQC dimerization motif. (FIG. 11B) The assay for identification of MUC1-CD dimerization inhibitors is depicted with the following steps: (i) coating of MUC1-CD onto a microplate, (ii) adding soluble biotinylated MUC1-C and […] compound, and (iii) addition of streptavidin-HRP and then peroxide with conversion by HRP to a blue color. The signal is measured by EnVision and proportional to the amount of bound biotin-labeled MUC1-CD.
FIGS. 12A-D—Apigenin is an inhibitor of MUC1-CD dimerization in vitro and in cells. (FIG. 12A) Structures of apigenin and its analogue baicalein. Using the in vitro screening assay, dimerization of MUC1-CD was assessed in the presence of 100 μM apigenin or 100 μM baicalein each dissolved in 0.1% DMSO. The results (mean±SD of 3 determinations) are expressed as percentage of control dimerization in the presence of DMSO alone. (FIG. 12B) MUC1-CD dimerization was assessed in the presence of the indicated concentrations of apigenin in the in vitro screening assay. […] (FIG. 12C) Soluble MUC1-CD was incubated in the presence of 1% DMSO, 1 mM apigenin or 1 mM baicalein for 1 h at room temperature. Monomers and dimmers were assessed by electrophoresis in a non-reducing gel and immunoblotting with anti-MUC1-C. (FIG. 12D) 293 cells were transiently transfected to express an empty vector or GFP-MUC1-CD and Flag-MUC1-CD. At six hours after transfection, the cells were left untreated, and treated with 75 μM apigenin or baicalein for 3 days. Whole-cell lysates were precipitated with anti-Flag, and the precipitates were immunoblotted with the indicated antibodies.
Multi-well (96- or 384-well) plates are coated with non-biotinylated MUC1-CD, and biotinylated MUC1-CD is added to the plates to initiate MUC1-CD dimerization or oligomerization. A luminescent substrate for biotin binding is added to the plate, followed by washing. Resulting fluorescence is detected by luminescence detection at absorbance 405 nm. A complete schematic illustration of this assay is described in […]. Test compounds are added at multiple concentrations to the plates and, following incubation and washing, the plates are read for luminescent detection. The formation of MUC1-CD dimers is detected.
To develop a HTS assay for compounds that inhibit MUC1-CD dimerization, the inventors generated purified His-tagged MUC1-CD protein. They also generated a biotin-labeled His-tagged MUC1-CD protein using a standard biotinylation kit. Biotinylated and non-biotinylated proteins were purified through Nickel columns.
The inventors coated 96- or 384-well plates with non-biotinylated MUC1-CD protein and added biotinylated MUC1-CD protein to the plates to initiate MUC1-CD/MUC1-CD dimerization or oligomerization. They then added a substrate to the plate which will bind to the biotinylated protein (only at the dimer or oligomer state) and the resultant fluorescence was detected by luminescence detection at absorbance 405 nm. A complete schematic illustration of this assay is described in FIG. 6.
Individual compounds from the chemical libraries were then added at multiple concentrations (0.01 μM to 100 μM) to the plates and following incubation and washing, the plates were read by luminescence detection at […]. […]

In test [2] the test system is MUC1 promoter. Briefly: MUC1-C occupancy on the MUC1 promoter. The format is cell-based.
Test [3] relates to MUC1-negative 293 cells. Briefly: Viable cell number by trypan blue exclusion, 293 cells. The format is cell-based, human. To be noted: 5 μM. The method, then: FIGS. 4A-E. Selectivity of MUC1/CQC for MUC1 expressing breast cancer cells. (FIG. 4A) ZR-75-1 cells were stably infected with an empty lentivirus (vector) or one expressing a MUC1 siRNA. Lysates for the infected cells were immunoblotted with the indicated antibodies. (FIG. 4B) ZR-75-1/vector cells were left untreated (diamonds), and ZR-75-1/vector (squares) and ZR-75-1/MUC1 siRNA (triangles) cells were treated with 5 μM MUC1/CQC peptide for the indicated times. Viable cell number was determined by trypan blue exclusion. (FIG. 4C) 293 cells were left untreated (diamonds), and treated with 5 μM MUC1/CQC (squares) or MUC1/AQA (triangles) for the indicated times. Viable cell number was determined by trypan blue exclusion. (FIG. 4D) MCF-10A cells were left untreated (left panel), and treated with 5 μM MUC1/CQC (middle panel) or MUC1/AQA (right panel). At 3 d, cells were analyzed for cell cycle distribution. […] Viable cell number was determined by trypan blue exclusion.
Human breast cancer ZR-75-1, ZR-75-1/vector, ZR-75-1/MUC1siRNA (Ren et al., 2004) cell lines were grown in RPMI1640 medium supplemented with 10% heat-inactivated fetal bovine serum (HI-FBS), 100 U/ml penicillin, and 100 μg/ml streptomycin (Invitrogen) in a humidified incubator at 37° C. and 5% CO2. […] Viability was determined by trypan blue exclusion.

[4] abbreviates: 100 μM, compared to vehicle (DMSO).

Take `O=c1cc(-c2ccc(O)cc2)oc2cc(O)cc(O)c12` [Apigenin, 4′,5,7-trihydroxyflavone]: the inhibition (commonly the share of the control response that was lost under treatment) at 100 µM in test [1] (setting [4]) is about 80%. In addition, in test [1] (library of Table 1), the “initial library screen result” value is reported as “MUC1 dimerization inhibitory compounds”. Moreover, in test [1] (range of concentrations, read-out: 50% inhibition (IC50) of MUC1-CD dimerization), the IC50 (in general, the concentration that gives 50% inhibition) was 76 µM. Also, the “MUC1-C occupancy on the MUC1 promoter” value in test [2] is recorded as “blocked MUC1-C occupancy on the MUC1 promoter”.

Regarding `O=c1cc(-c2ccccc2)oc2cc(O)c(O)c(O)c12` [Baicalein, 5,6,7-trihydroxyflavone, reference compound], the “inhibition of MUC1-CD dimerization” value in test [1] (setting [4]) is “little if any effect”. Further, the “MUC1-C occupancy on the MUC1 promoter” value in test [2] was “not”.

Turning to `CC[C@H](C)[C@H](NC(=O)[C@H](CC(=O)O)NC(=O)[C@H](CC(C)C)NC(=O)[C@H](CCC(N)=O)NC(=O)CNC(=O)[C@H](Cc1ccc(O)cc1)NC(=O)[C@H](CC(N)=O)NC(=O)[C@H](CCCCN)NC(=O)[C@H](CCCNC(=N)N)NC(=O)[C@H](CCCNC(=N)N)NC(=O)[C@H](CS)NC(=O)[C@H](CCC(N)=O)NC(=O)[C@H](CS)NC(=O)[C@@H](CCCNC(=N)N)NC(=O)[C@@H](CCCNC(=N)N)NC(=O)[C@@H](CCCNC(=N)N)NC(=O)[C@@H](CCCNC(=N)N)NC(=O)[C@@H](CCCNC(=N)N)NC(=O)[C@@H](CCCNC(=N)N)NC(=O)[C@@H](CCCNC(=N)N)NC(=O)[C@@H](CCCNC(=N)N)NC(=O)[C@H](N)CCCNC(=N)N)C(=O)N[C@@H](Cc1ccccc1)C(=O)N1CCC[C@H]1C(=O)O` [MUC1/CQC], the “growth / viable cell number” value in test [3] is recorded as “no apparent effect”.
